Assay results from paper PMC10341549, “Inhibitory Investigations of Acyl-CoA Derivatives against Human Lipoxygenase Isozymes” (International Journal of Molecular Sciences, 2023).

Target: T1, h5-LOX (Homo sapiens, UniProt P09917, C241A/C562A/D45S/DEL41-43/F15H/K654E/K655N/K656L/L77S/N44G/W14E/W76G)
T1 sequence (P09917 with tags, fused parts or gaps W14E/F15H/DEL41-43/N44G/D45S/W76G/L77S/C241A/C562A/K654E/K655N/K656L): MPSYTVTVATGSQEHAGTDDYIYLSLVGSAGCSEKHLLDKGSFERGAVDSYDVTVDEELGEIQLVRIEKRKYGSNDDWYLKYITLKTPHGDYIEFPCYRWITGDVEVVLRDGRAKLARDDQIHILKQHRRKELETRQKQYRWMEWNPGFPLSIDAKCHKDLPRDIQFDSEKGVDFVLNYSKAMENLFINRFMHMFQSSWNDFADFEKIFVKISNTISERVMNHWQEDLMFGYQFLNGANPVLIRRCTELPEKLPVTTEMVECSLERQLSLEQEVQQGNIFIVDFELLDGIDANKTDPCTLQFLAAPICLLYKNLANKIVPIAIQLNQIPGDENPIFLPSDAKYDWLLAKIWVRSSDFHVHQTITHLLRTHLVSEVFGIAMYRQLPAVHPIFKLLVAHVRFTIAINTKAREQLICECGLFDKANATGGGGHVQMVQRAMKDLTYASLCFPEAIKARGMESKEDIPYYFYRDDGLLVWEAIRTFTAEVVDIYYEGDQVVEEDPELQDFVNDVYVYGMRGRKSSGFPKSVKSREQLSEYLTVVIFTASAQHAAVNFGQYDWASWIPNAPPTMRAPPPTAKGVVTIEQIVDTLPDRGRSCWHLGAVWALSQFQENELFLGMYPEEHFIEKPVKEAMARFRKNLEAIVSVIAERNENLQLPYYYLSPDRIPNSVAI
Assay: IC50 determination against h5-LOX
Type: biochemical
Conditions: 10 μM AA, 50 mM HEPES pH 7.5, 200 µM ATP, ammonium-sulfate precipitate enzyme, 22 °C
Description: Overexpression and purification of his-tagged wild-type h12-LOX (Uniprot entry P18054), h15-LOX-1 (Uniprot entry P16050), and h15-LOX-2 (Uniprot entry O15296) were performed using nickel-affinity chromatography. The purity of h12-LOX, h15-LOX-1, and h15-LOX-2 was assessed using SDS gel as greater than 85%, and metal content was assessed with a Finnigan inductively coupled plasma mass spectrometer (ICP-MS, Thermo Fischer Scientific, San Jose, USA) via comparison with iron standard solution. Cobalt-EDTA was used as an internal standard. WT h5-LOX (UniProt entry P09917) was expressed in Rosetta 2 cells (Novagen) transformed with the pET14b-Stable-5-LOX plasmid (a gift from Marcia Newcomer of Louisiana State University) and grown in Terrific Broth containing 34 μg/mL chloramphenicol and 100 μg/mL ampicillin at 37 °C for 3.5 h, then placed at 20 °C for an additional 26 h. Cells were pelleted and resuspended in 50 mM Tris (pH 8.0), 500 mM NaCl, 20 mM imidazole with 1 μM pepstatin, 100 μM PMSF, and DNaseI (Sigma, Kanagawa, Japan). The cells were lysed in a French pressure cell and centrifuged at 40,000× g for 20 min at 4 °C. Saturated ammonium sulfate was added to achieve a final solution of 10% and inverted several times. The lysate was centrifuged at 40,000× g for 10 min at 4 °C. The pellet was discarded, and the supernatant was increased to a final concentration of 50% ammonium sulfate. The supernatant was rotated for 10 min at 4 °C then centrifuged at 40,000× g for 10 min at 4 °C. The pellet was split into 150 mg aliquots. The WT h5-LOX used for the kinetics in this work was not purified due to a dramatic loss in activity and was therefore prepared as an ammonium-sulfate precipitate.
IC50 values for each acyl-CoA were measured against h5-LOX, h12-LOX, h15-LOX-1, and h15-LOX-2. […] The fastest rates over 15 s intervals were recorded. […]

Row | IC50 [µM] | Structure (SMILES)
1 | > 200 | CC/C=C\C/C=C\C/C=C\C/C=C\C/C=C\C/C=C\CCC(=O)SCCNC(=O)CCNC(=O)C(O)C(C)(C)COP(=O)(O)OP(=O)(O)OC[C@H]1O[C@@H](n2cnc3c(N)ncnc32)[C@H](O)[C@@H]1OP(=O)(O)O (stereo partly drawn) [Docosahexaenoyl CoA (22:6), docosahexaenoyl-coenzyme A (22:6)]
2 | > 50 | CCCCC/C=C\C/C=C\CCCCCCCC(=O)SCCNC(=O)CCNC(=O)[C@H](O)C(C)(C)COP(=O)(O)OP(=O)(O)OC[C@H]1O[C@@H](n2cnc3c(N)ncnc32)[C@H](O)[C@@H]1OP(=O)(O)O [Linoleoyl-CoA (18:2), linoleoyl-CoA]
3 | > 200 | CCCCC/C=C\C/C=C\C/C=C\CCCCC(=O)SCCNC(=O)CCNC(=O)[C@H](O)C(C)(C)COP(=O)(O)OP(=O)(O)OC[C@H]1O[C@@H](n2cnc3c(N)ncnc32)[C@H](O)[C@@H]1OP(=O)(O)O [ɣ-Linolenoyl-CoA (18:3), ɣ-linolenoyl-coenzyme A (18:3)]
